Measured values: ChEMBL document CHEMBL5058649, “Data for DCP probe BAY 1816032” (2022)

Columns and labels:
[1] = biological target: Hepatocyte growth factor receptor (Homo sapiens) (UniProt P08581); test: MET DiscoveRx kinase panel; conditions: Compound concentration 1.0 uM
[2] = biological target: Calcium/calmodulin-dependent protein kinase type II subunit alpha (Homo sapiens) (UniProt Q9UQM7); test: CAMK2A DiscoveRx kinase panel; conditions: Compound concentration 1.0 uM
[3] = biological target: Rhodopsin kinase GRK7 (Homo sapiens) (UniProt Q8WTQ7); test: GRK7 DiscoveRx kinase panel; conditions: Compound concentration 1.0 uM
Chain of Rhodopsin kinase GRK7 (Homo sapiens) (Q8WTQ7 whole entry): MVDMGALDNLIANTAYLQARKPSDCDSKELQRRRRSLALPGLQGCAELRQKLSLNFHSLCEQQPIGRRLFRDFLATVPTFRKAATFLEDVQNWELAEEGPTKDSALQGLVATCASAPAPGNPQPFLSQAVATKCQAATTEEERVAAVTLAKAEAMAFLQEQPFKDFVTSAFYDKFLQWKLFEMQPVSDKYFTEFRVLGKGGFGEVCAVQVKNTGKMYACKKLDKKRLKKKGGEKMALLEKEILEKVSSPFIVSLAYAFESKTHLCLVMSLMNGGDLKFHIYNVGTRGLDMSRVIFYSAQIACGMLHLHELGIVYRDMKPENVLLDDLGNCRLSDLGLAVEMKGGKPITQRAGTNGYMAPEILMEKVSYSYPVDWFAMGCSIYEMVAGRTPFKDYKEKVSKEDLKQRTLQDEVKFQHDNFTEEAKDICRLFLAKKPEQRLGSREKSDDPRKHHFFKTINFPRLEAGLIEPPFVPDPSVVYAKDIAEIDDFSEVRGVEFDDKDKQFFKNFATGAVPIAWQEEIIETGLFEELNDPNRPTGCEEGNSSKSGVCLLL

Bacteria = test: Inhibition of Beta-Lactamase at 10 µM in the Eurofins-Panlabs enzyme assay (Eurofins_assay_126000); type: protein-complex assay; set-up: substrate with concentration; conditions: Compound concentration 10.0 uM
[4] = biological target: Adenosine Transporter (Cavia porcellus) (UniProt H0V4R7+H0UUG1+H0V3Z5); test: Inhibition of Transporter, Adenosine at compound concentration of 10.0 uM in the Eurofins-Panlabs radioligand binding assay (Eurofins_assay_202000); type: protein assay; set-up: ligand concentration 0.5 nM, non-specific ligand with concentration 5 uM Nitrobenzylthioinosine, incubation time 30 min, incubation temperature 25 C; conditions: Compound concentration 10.0 uM
[5] = biological target: T1, Alpha-2A adrenergic receptor (Homo sapiens) (UniProt P08913); conditions: Compound concentration 10.0 uM
T1 sequence (whole entry): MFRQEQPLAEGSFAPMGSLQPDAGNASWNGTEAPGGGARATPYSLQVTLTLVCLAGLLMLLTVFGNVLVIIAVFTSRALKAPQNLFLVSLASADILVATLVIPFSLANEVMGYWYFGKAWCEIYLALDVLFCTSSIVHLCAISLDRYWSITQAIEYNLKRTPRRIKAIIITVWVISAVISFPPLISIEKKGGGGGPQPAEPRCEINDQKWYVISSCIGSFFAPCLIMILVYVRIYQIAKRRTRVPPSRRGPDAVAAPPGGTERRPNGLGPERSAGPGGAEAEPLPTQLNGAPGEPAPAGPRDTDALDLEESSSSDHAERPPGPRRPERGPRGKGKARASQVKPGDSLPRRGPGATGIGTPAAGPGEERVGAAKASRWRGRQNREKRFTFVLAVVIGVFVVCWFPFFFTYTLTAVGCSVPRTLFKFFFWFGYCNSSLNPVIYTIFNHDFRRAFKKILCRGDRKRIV

[6] = biological target: Phosphatidylinositol 5-phosphate 4-kinase type-2 beta (Homo sapiens) (UniProt P78356); test: PIP5K2B DiscoveRx kinase panel; conditions: Compound concentration 1.0 uM
[7] = biological target: Tyrosine-protein kinase Tec (Homo sapiens) (UniProt P42680); test: TEC DiscoveRx kinase panel; conditions: Compound concentration 1.0 uM
[8] = biological target: MAP/microtubule affinity-regulating kinase 3 (Homo sapiens) (UniProt P27448); test: MARK3 DiscoveRx kinase panel; conditions: Compound concentration 1.0 uM
[9] = biological target: Tyrosine-protein kinase HCK (Homo sapiens) (UniProt P08631); test: HCK DiscoveRx kinase panel; conditions: Compound concentration 1.0 uM
[10] = biological target: Proto-oncogene tyrosine-protein kinase receptor Ret (Homo sapiens) (UniProt P07949); test: RET DiscoveRx kinase panel; conditions: Compound concentration 1.0 uM
[11] = biological target: NUAK family SNF1-like kinase 2 (Homo sapiens) (UniProt Q9H093); test: SNARK DiscoveRx kinase panel; conditions: Compound concentration 1.0 uM
Chain of NUAK family SNF1-like kinase 2 (Homo sapiens) (Q9H093 whole entry): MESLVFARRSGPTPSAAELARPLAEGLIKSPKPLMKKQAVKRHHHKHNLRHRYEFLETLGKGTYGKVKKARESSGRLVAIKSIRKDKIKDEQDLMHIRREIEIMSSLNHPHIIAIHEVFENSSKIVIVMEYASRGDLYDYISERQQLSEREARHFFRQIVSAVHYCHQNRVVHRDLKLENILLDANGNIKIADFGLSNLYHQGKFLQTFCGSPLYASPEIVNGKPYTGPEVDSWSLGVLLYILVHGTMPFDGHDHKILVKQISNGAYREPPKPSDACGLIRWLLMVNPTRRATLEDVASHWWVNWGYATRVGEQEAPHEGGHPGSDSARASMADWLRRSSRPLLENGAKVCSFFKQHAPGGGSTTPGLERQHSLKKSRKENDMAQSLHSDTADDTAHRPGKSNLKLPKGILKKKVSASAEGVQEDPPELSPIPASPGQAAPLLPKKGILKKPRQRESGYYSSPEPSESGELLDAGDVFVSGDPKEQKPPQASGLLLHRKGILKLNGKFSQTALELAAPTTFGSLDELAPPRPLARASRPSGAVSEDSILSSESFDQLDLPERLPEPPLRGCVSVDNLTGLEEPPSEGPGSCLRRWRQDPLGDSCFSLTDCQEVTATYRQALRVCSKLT

[12] = biological target: Activated CDC42 kinase 1 (Homo sapiens) (UniProt Q07912); test: TNK2 DiscoveRx kinase panel; conditions: Compound concentration 1.0 uM
[13] = biological target: Interleukin-1 receptor-associated kinase 3 (Homo sapiens) (UniProt Q9Y616); test: IRAK3 DiscoveRx kinase panel; conditions: Compound concentration 1.0 uM
Chain of Interleukin-1 receptor-associated kinase 3 (Homo sapiens) (Q9Y616 whole entry): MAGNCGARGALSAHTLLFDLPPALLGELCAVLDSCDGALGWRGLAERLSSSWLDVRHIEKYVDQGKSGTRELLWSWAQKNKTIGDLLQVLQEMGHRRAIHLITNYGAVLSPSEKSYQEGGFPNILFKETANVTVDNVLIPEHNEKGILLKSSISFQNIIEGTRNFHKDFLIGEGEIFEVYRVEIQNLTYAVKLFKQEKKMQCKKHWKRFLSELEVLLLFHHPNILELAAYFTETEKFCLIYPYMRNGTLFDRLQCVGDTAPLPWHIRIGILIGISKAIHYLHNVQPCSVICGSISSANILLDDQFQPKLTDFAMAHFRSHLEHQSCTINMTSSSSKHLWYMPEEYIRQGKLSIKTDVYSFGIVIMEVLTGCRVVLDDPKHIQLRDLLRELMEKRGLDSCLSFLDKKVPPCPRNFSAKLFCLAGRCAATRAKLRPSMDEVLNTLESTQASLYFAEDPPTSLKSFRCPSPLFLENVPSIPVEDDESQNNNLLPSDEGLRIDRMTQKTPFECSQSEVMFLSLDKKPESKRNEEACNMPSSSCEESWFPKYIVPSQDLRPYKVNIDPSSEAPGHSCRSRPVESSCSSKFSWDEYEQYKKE

[14] = biological target: Ribosomal protein S6 kinase alpha-2 (Homo sapiens) (UniProt Q15349); test: RSK3(Kin.Dom.2-C-terminal) DiscoveRx kinase panel; conditions: Compound concentration 1.0 uM
[15] = biological target: 5-hydroxytryptamine receptor 1D (Homo sapiens, UniProt P28221); conditions: Compound concentration 10.0 uM
[16] = biological target: Ephrin type-B receptor 4 (Homo sapiens) (UniProt P54760); test: EPHB4 DiscoveRx kinase panel; conditions: Compound concentration 1.0 uM
MAO-A = MAO-A (Homo sapiens, UniProt P21397); test: Inhibition of Monoamine Oxidase MAO-A at compound concentration of 10.0 uM in the Eurofins-Panlabs enzyme assay (Eurofins_assay_140010); set-up: substrate with concentration 50 uM Kynuramine, incubation time 60 min, incubation temperature 37 C; conditions: human recombinant MAO-A expressed in insect Hi5 cells, probe Kynuramine (50 uM), compound concentration 10 uM
[17] = biological target: BMP-2-inducible protein kinase (Homo sapiens) (UniProt Q9NSY1); test: BIKE DiscoveRx kinase panel; conditions: Compound concentration 1.0 uM
[18] = biological target: Dual specificity mitogen-activated protein kinase kinase 1 (Homo sapiens) (UniProt Q02750); test: MEK1 DiscoveRx kinase panel; conditions: Compound concentration 1.0 uM
[19] = biological target: Non-receptor tyrosine-protein kinase TYK2 (Homo sapiens) (UniProt P29597); test: TYK2(JH2domain-pseudokinase) DiscoveRx kinase panel; conditions: Compound concentration 1.0 uM
[20] = biological target: Serine/threonine-protein kinase PAK 6 (Homo sapiens) (UniProt Q9NQU5); test: PAK6 DiscoveRx kinase panel; conditions: Compound concentration 1.0 uM
[21] = biological target: Fibroblast growth factor receptor 4 (Homo sapiens) (UniProt P22455); test: FGFR4 DiscoveRx kinase panel; conditions: Compound concentration 1.0 uM
[22] = biological target: Tyrosine-protein kinase ZAP-70 (Homo sapiens) (UniProt P43403); test: ZAP70 DiscoveRx kinase panel; conditions: Compound concentration 1.0 uM
[23] = biological target: Serine/threonine-protein kinase 38-like (Homo sapiens) (UniProt Q9Y2H1); test: NDR2 DiscoveRx kinase panel; conditions: Compound concentration 1.0 uM
[24] = biological target: Serine/threonine-protein kinase LATS1 (Homo sapiens) (UniProt O95835); test: LATS1 DiscoveRx kinase panel; conditions: Compound concentration 1.0 uM
[25] = biological target: Phosphatidylinositol 4,5-bisphosphate 3-kinase catalytic subunit beta isoform (Homo sapiens) (UniProt P42338); test: PIK3CB DiscoveRx kinase panel; conditions: Compound concentration 1.0 uM
[26] = biological target: Ribosomal protein S6 kinase alpha-5 (Homo sapiens) (UniProt O75582); test: RPS6KA5(Kin.Dom.2-C-terminal) DiscoveRx kinase panel; conditions: Compound concentration 1.0 uM
[27] = biological target: Serine/threonine-protein kinase ULK2 (Homo sapiens) (UniProt Q8IYT8); test: ULK2 DiscoveRx kinase panel; conditions: Compound concentration 1.0 uM
[28] = biological target: Cytoplasmic tyrosine-protein kinase BMX (Homo sapiens) (UniProt P51813); test: BMX DiscoveRx kinase panel; conditions: Compound concentration 1.0 uM
Chain of Cytoplasmic tyrosine-protein kinase BMX (Homo sapiens) (P51813 whole entry): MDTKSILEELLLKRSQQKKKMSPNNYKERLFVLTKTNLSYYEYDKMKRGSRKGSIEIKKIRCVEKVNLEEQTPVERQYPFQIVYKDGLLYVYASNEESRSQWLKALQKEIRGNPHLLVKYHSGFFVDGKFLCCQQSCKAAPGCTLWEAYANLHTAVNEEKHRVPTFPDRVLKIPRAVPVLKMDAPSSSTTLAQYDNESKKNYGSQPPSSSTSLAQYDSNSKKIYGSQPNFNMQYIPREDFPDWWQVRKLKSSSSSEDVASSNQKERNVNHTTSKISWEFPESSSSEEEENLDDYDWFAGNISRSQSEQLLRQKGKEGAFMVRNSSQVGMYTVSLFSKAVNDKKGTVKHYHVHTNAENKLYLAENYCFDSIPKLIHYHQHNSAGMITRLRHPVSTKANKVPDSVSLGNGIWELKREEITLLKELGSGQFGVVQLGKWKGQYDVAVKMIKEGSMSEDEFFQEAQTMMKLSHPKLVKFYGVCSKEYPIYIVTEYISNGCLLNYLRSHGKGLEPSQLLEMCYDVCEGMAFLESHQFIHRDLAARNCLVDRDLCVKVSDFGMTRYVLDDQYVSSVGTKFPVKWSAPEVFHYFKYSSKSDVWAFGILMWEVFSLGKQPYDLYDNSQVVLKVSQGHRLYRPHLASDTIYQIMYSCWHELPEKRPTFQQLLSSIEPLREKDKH

[29] = biological target: Cyclin-dependent kinase 2 (Homo sapiens) (UniProt P24941); test: CDK2 DiscoveRx kinase panel; conditions: Compound concentration 1.0 uM
[30] = biological target: Adenosine receptor A2a (Homo sapiens) (UniProt P29274); conditions: Compound concentration 10.0 uM
[31] = biological target: Serine/threonine-protein kinase MRCK alpha (Homo sapiens) (UniProt Q5VT25); test: MRCKA DiscoveRx kinase panel; conditions: Compound concentration 1.0 uM
Chain of Serine/threonine-protein kinase MRCK alpha (Homo sapiens) (Q5VT25 whole entry): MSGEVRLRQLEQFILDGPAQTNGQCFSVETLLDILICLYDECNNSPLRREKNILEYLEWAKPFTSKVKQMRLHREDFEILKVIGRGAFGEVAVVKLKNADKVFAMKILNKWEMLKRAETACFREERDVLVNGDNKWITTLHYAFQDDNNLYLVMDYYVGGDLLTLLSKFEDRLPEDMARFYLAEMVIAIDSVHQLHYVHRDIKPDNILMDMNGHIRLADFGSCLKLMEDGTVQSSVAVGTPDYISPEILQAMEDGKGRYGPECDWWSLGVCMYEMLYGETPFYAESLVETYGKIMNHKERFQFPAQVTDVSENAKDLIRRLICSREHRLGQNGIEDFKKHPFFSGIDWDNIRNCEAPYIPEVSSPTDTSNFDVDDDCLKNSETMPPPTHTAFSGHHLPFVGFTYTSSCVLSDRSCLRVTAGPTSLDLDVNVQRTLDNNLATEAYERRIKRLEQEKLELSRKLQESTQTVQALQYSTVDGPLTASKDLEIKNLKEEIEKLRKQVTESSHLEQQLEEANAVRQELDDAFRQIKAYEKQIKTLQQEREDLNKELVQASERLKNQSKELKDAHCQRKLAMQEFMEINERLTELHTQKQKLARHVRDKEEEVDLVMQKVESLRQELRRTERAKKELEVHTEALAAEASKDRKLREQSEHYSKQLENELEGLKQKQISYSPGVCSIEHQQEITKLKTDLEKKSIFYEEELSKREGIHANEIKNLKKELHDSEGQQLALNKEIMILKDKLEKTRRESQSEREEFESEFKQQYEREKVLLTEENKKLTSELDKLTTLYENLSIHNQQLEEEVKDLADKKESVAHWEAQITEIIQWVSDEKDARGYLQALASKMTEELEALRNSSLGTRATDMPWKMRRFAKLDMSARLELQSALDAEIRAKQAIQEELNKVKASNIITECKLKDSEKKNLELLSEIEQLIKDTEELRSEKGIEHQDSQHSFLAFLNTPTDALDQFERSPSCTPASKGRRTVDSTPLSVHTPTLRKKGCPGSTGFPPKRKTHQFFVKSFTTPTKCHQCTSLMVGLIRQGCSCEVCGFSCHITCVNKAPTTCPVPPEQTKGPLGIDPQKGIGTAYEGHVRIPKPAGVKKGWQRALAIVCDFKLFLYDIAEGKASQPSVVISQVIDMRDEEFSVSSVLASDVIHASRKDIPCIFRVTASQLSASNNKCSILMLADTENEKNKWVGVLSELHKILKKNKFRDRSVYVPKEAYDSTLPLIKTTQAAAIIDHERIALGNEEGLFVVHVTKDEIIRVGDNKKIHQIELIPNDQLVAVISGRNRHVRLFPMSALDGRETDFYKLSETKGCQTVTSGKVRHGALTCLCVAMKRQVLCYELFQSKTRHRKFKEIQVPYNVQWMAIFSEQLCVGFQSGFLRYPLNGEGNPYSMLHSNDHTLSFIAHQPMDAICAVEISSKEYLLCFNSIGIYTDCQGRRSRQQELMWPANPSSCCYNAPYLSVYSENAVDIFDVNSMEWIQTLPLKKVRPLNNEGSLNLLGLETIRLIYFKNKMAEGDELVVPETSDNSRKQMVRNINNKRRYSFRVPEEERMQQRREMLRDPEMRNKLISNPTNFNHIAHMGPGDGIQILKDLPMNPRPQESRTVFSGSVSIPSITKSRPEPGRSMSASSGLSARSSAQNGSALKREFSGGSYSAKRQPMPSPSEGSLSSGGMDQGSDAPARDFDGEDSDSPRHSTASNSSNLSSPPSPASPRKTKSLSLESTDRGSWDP

[32] = biological target: Prostaglandin G/H synthase 2 (Homo sapiens) (UniProt P35354); test: Cyclooxygenase COX-2 Eurofins-Panlabs enzyme assay; set-up: substrate with concentration; conditions: Compound concentration 10.0 uM
[33] = biological target: Tyrosine-protein kinase SYK (Homo sapiens) (UniProt P43405); test: SYK DiscoveRx kinase panel; conditions: Compound concentration 1.0 uM
[34] = biological target: Aurora kinase B (Homo sapiens) (UniProt Q96GD4); test: AURKB DiscoveRx kinase panel; conditions: Compound concentration 1.0 uM
Chain of Aurora kinase B (Homo sapiens) (Q96GD4 whole entry): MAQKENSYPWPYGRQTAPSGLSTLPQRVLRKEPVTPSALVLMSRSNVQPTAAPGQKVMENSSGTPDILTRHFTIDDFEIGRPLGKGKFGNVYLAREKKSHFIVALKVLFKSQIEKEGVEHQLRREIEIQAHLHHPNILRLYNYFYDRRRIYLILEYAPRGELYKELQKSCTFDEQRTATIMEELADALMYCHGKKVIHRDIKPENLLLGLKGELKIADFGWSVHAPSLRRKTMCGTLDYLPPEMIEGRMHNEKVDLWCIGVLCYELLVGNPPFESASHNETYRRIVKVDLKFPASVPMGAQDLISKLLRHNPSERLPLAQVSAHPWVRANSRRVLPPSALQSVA

[35] = biological target: Sigma intracellular receptor 2 (Homo sapiens, UniProt Q5BJF2); conditions: Compound concentration 10.0 uM
[36] = biological target: Serine/threonine-protein kinase WNK2 (Homo sapiens) (UniProt Q9Y3S1); test: WNK2 DiscoveRx kinase panel; conditions: Compound concentration 1.0 uM
[37] = biological target: TGF-beta receptor type-1 (Homo sapiens) (UniProt P36897); test: TGFBR1 DiscoveRx kinase panel; conditions: Compound concentration 1.0 uM
[38] = biological target: Activin receptor type-1 (Homo sapiens) (UniProt Q04771); test: ACVR1 DiscoveRx kinase panel; conditions: Compound concentration 1.0 uM
Chain of Activin receptor type-1 (Homo sapiens) (Q04771 whole entry): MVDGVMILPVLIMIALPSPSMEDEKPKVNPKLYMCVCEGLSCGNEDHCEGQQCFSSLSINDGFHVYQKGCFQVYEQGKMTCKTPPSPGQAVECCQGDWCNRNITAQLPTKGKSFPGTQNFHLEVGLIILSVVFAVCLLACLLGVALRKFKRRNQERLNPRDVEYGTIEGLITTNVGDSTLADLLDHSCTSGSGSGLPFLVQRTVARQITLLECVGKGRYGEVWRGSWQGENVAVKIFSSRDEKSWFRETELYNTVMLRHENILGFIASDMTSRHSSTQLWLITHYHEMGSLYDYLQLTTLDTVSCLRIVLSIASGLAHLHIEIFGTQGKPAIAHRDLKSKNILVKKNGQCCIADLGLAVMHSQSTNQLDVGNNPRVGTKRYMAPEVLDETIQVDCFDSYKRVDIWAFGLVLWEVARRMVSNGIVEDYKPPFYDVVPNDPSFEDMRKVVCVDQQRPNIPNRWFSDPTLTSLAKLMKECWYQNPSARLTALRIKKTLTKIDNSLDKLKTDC

[39] = biological target: TGF-beta receptor type-2 (Homo sapiens) (UniProt P37173); test: TGFBR2 DiscoveRx kinase panel; conditions: Compound concentration 1.0 uM

COc1cnccc1Nc1nc(-c2nn(Cc3c(F)cc(OCCO)cc3F)c3ccccc23)ncc1OC
residual activity [1]: 80%
residual activity [2]: 58%
residual activity [3]: 60%
inhibition (Bacteria): 21%
inhibition [4]: 71%
inhibition [5]: 2%
residual activity [6]: 91%
residual activity [7]: 100%
residual activity [8]: 73%
residual activity [9]: 100%
residual activity [10]: 97%
residual activity [11]: 99%
residual activity [12]: 100%
residual activity [13]: 92%
residual activity [14]: 100%
inhibition [15]: 9.3%
residual activity [16]: 93%
inhibition at 60 min, 10 µM (MAO-A): 7% (not active)
residual activity [17]: 74%
residual activity [18]: 97%
residual activity [19]: 100%
residual activity [20]: 79%
residual activity [21]: 98%
residual activity [22]: 100%
residual activity [23]: 78%
residual activity [24]: 95%
residual activity [25]: 97%
residual activity [26]: 100%
residual activity [27]: 100%
residual activity [28]: 100%
residual activity [29]: 89%
inhibition [30]: 67%
residual activity [31]: 72%
inhibition [32]: -9%
residual activity [33]: 100%
residual activity [34]: 100%
inhibition [35]: 13%
residual activity [36]: 91%
residual activity [37]: 53%
residual activity [38]: 98%
residual activity [39]: 100%
